Assay results taken from US6355799B1, “Substituted benzene compounds, process for their preparation, and herbicidal and defoliant compositions containing them” (ISK Americas Incorporated, priority 1997, dated 2002).

Tests used:
Format in all cases: in vivo
[1] = test system: field corn (Zea mays L., var. Dekalb 535, CORN); assay: Post-emerge test, crop safety; settings: post-emerge, 14 days after application, rating scale 0-100
In short: (§1)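 Each test used a mechanized track sprayer delivering 187 l/ha of acetone solution at 15–1000 g ai/ha. Post-emerge foliage at 2–3 leaves was treated with added 0.25% v/v non-ionic surfactant and bottom-watered only. Injury was assessed on day 14, where 100 means total kill.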

[2] = test system: upland rice (Oryza sp., var. Tebonnet, RICE); assay: Post-emerge test, crop safety; settings: post-emerge, 14 days after application, rating scale 0-100
In short: as §1

[3] = test system: ivyleaf morningglory (Ipomoea hederacea, IPOHE); assay: Post-emerge test, greenhouse herbicide activity screening; settings: post-emerge, 14 days after application, rating scale 0-100
In short: (§2)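 Herbicidal damage is scored 0 (none) to 100 (complete plant death) two weeks after a simulated field spray. Rates span 15–1000 g ai/ha, delivered in acetone at 187 l/ha. For post-emergence treatments, plants have 2–3 leaves and the spray carries 0.25% v/v non-ionic surfactant.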

[4] = test system: redroot pigweed (Amaranthus retroflexus, AMARE); assay: as above; settings: post-emerge, 14 days after application, rating scale 0-100
In short: as §2

[5] = test system: johnsongrass (Sorghum halepense, SORHA); assay: as above; settings: post-emerge, 14 days after application, rating scale 0-100
In short: as §2

[6] = test system: large crabgrass (Digitaria sanguinalis, DIGSA); assay: as above; settings: post-emerge, 14 days after application, rating scale 0-100
In short: as §2

[7] = test system: lambsquarters (Chenopodium album, CHEAL); assay: as above; settings: post-emerge, 14 days after application, rating scale 0-100
In short: as §2

[8] = test system: green foxtail (Setaria viridis, SETVI); assay: as above; settings: post-emerge, 14 days after application, rating scale 0-100
In short: as §2

[9] = test system: velvetleaf (Abutilon theophrasti, ABUTH); assay: as above; settings: post-emerge, 14 days after application, rating scale 0-100
In short: as §2

[10] = test system: barnyardgrass (Echinochloa crus-galli, ECHCG); assay: as above; settings: post-emerge, 14 days after application, rating scale 0-100
In short: as §2

[11] = test system: sicklepod (Cassia obtusifolia, CASOB); assay: as above; settings: post-emerge, 14 days after application, rating scale 0-100
In short: as §2

[12] = test system: redroot pigweed (Amaranthus retroflexus, AMARE); assay: Pre-emerge test, greenhouse herbicide activity screening; settings: pre-emerge, 14 days after application, scale 0-100
In short: (§3)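 Plants grown in 10 cm pots of sandy loam mix received acetone-dissolved compounds through a moving flat-fan nozzle. Doses ranged from 15 to 1000 g ai/ha. Pre-emerge pots were seeded one day earlier, post-emerge pots 8–21 days earlier. Fourteen days on, each pot was graded 0–100 for damage.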

[13] = test system: field corn (Zea mays L., var. Dekalb 535, CORN); assay: Pre-emerge test, crop safety; settings: pre-emerge, 14 days after application, scale 0-100
In short: as §2

[14] = test system: upland rice (Oryza sp., var. Tebonnet, RICE); assay: Pre-emerge test, crop safety; settings: pre-emerge, 14 days after application, scale 0-100
In short: as §2

[15] = test system: ivyleaf morningglory (Ipomoea hederacea, IPOHE); assay: Pre-emerge test, greenhouse herbicide activity screening; settings: pre-emerge, 14 days after application, scale 0-100
In short: as §3

[16] = test system: johnsongrass (Sorghum halepense, SORHA); assay: as above; settings: pre-emerge, 14 days after application, scale 0-100
In short: as §3

[17] = test system: large crabgrass (Digitaria sanguinalis, DIGSA); assay: as above; settings: pre-emerge, 14 days after application, scale 0-100
In short: as §3

[18] = test system: lambsquarters (Chenopodium album, CHEAL); assay: as above; settings: pre-emerge, 14 days after application, scale 0-100
In short: as §3

[19] = test system: green foxtail (Setaria viridis, SETVI); assay: as above; settings: pre-emerge, 14 days after application, scale 0-100
In short: as §3

[20] = test system: velvetleaf (Abutilon theophrasti, ABUTH); assay: as above; settings: pre-emerge, 14 days after application, scale 0-100
In short: as §3

[21] = test system: common ragweed (Ambrosia artemisizfolia L., AMBEL); assay: as above; settings: pre-emerge, 14 days after application, scale 0-100
In short: as §3

[22] = test system: barnyardgrass (Echinochloa crus-galli, ECHCG); assay: as above; settings: pre-emerge, 14 days after application, scale 0-100
In short: as §3

[23] = test system: sicklepod (Cassia obtusifolia, CASOB); assay: as above; settings: pre-emerge, 14 days after application, scale 0-100
In short: as §3

In the case of `COc1c(Cl)cc(F)c(-n2c(=O)cc(C(F)(F)F)n(C)c2=O)c1NC(=O)c1ccc2c(C#N)cccc2c1` [2-163], the “CORN phytotoxicity rating (crop damage)” value ([1]; 63 g ai/ha) is reported as 35, the “CORN phytotoxicity rating (crop damage)” value ([1]; 250 g ai/ha) is reported as 40 and the “RICE phytotoxicity rating (crop damage)” value ([2]; 63 g ai/ha) is reported as 20. The “RICE phytotoxicity rating (crop damage)” value ([2]; 250 g ai/ha) was 55, the IPOHE phytotoxicity rating ([3]; 63 g ai/ha) was 98 and the IPOHE phytotoxicity rating ([3]; 250 g ai/ha) was 95. The AMARE phytotoxicity rating ([4]; 63 g ai/ha) was 100, the AMARE phytotoxicity rating ([4]; 250 g ai/ha) was 100 and the SORHA phytotoxicity rating ([5]; 63 g ai/ha) was 0. It also gave an SORHA phytotoxicity rating ([5]; 250 g ai/ha) of 10, a DIGSA phytotoxicity rating ([6]; 63 g ai/ha) of 30 and a DIGSA phytotoxicity rating ([6]; 250 g ai/ha) of 45. The CHEAL phytotoxicity rating ([7]; 63 g ai/ha) was 100, the CHEAL phytotoxicity rating ([7]; 250 g ai/ha) was 100 and the SETVI phytotoxicity rating ([8]; 63 g ai/ha) was 50. For the same compound, the SETVI phytotoxicity rating ([8]; 250 g ai/ha) was 60, the ABUTH phytotoxicity rating ([9]; 63 g ai/ha) was 99 and the ABUTH phytotoxicity rating ([9]; 250 g ai/ha) was 100. For the same compound, the ECHCG phytotoxicity rating ([10]; 63 g ai/ha) was 55, the ECHCG phytotoxicity rating ([10]; 250 g ai/ha) was 70 and the CASOB phytotoxicity rating ([11]; 63 g ai/ha) was 90. The CASOB phytotoxicity rating ([11]; 250 g ai/ha) was 90, the “phytotoxicity rating AMARE” value ([12]; 63 g ai/ha) was 100 and the “phytotoxicity rating AMARE” value ([12]; 250 g ai/ha) was 100. The “phytotoxicity rating CORN (crop damage)” value ([13]; 63 g ai/ha) was 0, the “phytotoxicity rating CORN (crop damage)” value ([13]; 250 g ai/ha) was 0 and the “phytotoxicity rating RICE (crop damage)” value ([14]; 63 g ai/ha) was 0. For the same compound, the “phytotoxicity rating RICE (crop damage)” value ([14]; 250 g ai/ha) was 30, the “phytotoxicity rating IPOHE” value ([15]; 63 g ai/ha) was 40 and the “phytotoxicity rating IPOHE” value ([15]; 250 g ai/ha) was 95. For the same compound, the “phytotoxicity rating SORHA” value ([16]; 63 g ai/ha) was 0, the “phytotoxicity rating SORHA” value ([16]; 250 g ai/ha) was 30 and the “phytotoxicity rating DIGSA” value ([17]; 63 g ai/ha) was 35. For the same compound, the “phytotoxicity rating DIGSA” value ([17]; 250 g ai/ha) was 100, the “phytotoxicity rating CHEAL” value ([18]; 63 g ai/ha) was 100 and the “phytotoxicity rating CHEAL” value ([18]; 250 g ai/ha) was 100. For the same compound, the “phytotoxicity rating SETVI” value ([19]; 63 g ai/ha) was 60, the “phytotoxicity rating SETVI” value ([19]; 250 g ai/ha) was 95 and the “phytotoxicity rating ABUTH” value ([20]; 63 g ai/ha) was 95. The “phytotoxicity rating ABUTH” value ([20]; 250 g ai/ha) was 100, the “phytotoxicity rating AMBEL” value ([21]; 63 g ai/ha) was 65 and the “phytotoxicity rating AMBEL” value ([21]; 250 g ai/ha) was 95. The “phytotoxicity rating ECHCG” value ([22]; 63 g ai/ha) was 0, the “phytotoxicity rating ECHCG” value ([22]; 250 g ai/ha) was 75 and the “phytotoxicity rating CASOB” value ([23]; 63 g ai/ha) was 10. The “phytotoxicity rating CASOB” value ([23]; 250 g ai/ha) was 60.

`Cn1c(C(F)(F)F)cc(=O)n(-c2ccc(C(F)(F)F)cc2NC(=O)c2ccc3ccccc3c2)c1=O` [2-149] was tested, and the “CORN phytotoxicity rating (crop damage)” value ([1]; 63 g ai/ha) was 0, the “CORN phytotoxicity rating (crop damage)” value ([1]; 250 g ai/ha) was 15 and the “RICE phytotoxicity rating (crop damage)” value ([2]; 63 g ai/ha) was 0. For the same compound, the “RICE phytotoxicity rating (crop damage)” value ([2]; 250 g ai/ha) was 10, the IPOHE phytotoxicity rating ([3]; 63 g ai/ha) was 70 and the IPOHE phytotoxicity rating ([3]; 250 g ai/ha) was 95. For the same compound, the AMARE phytotoxicity rating ([4]; 63 g ai/ha) was 80, the AMARE phytotoxicity rating ([4]; 250 g ai/ha) was 80 and the SORHA phytotoxicity rating ([5]; 63 g ai/ha) was 0. The SORHA phytotoxicity rating ([5]; 250 g ai/ha) was 0, the DIGSA phytotoxicity rating ([6]; 63 g ai/ha) was 0 and the DIGSA phytotoxicity rating ([6]; 250 g ai/ha) was 20. For the same compound, the CHEAL phytotoxicity rating ([7]; 63 g ai/ha) was 90, the CHEAL phytotoxicity rating ([7]; 250 g ai/ha) was 95 and the SETVI phytotoxicity rating ([8]; 63 g ai/ha) was 10. For the same compound, the SETVI phytotoxicity rating ([8]; 250 g ai/ha) was 20, the ABUTH phytotoxicity rating ([9]; 63 g ai/ha) was 100 and the ABUTH phytotoxicity rating ([9]; 250 g ai/ha) was 100. For the same compound, the ECHCG phytotoxicity rating ([10]; 63 g ai/ha) was 20, the ECHCG phytotoxicity rating ([10]; 250 g ai/ha) was 50 and the CASOB phytotoxicity rating ([11]; 63 g ai/ha) was 95. The CASOB phytotoxicity rating ([11]; 250 g ai/ha) was 95, the “phytotoxicity rating AMARE” value ([12]; 63 g ai/ha) was 100 and the “phytotoxicity rating AMARE” value ([12]; 250 g ai/ha) was 100. For the same compound, the “phytotoxicity rating CORN (crop damage)” value ([13]; 63 g ai/ha) was 0, the “phytotoxicity rating CORN (crop damage)” value ([13]; 250 g ai/ha) was 20 and the “phytotoxicity rating RICE (crop damage)” value ([14]; 63 g ai/ha) was 0. For the same compound, the “phytotoxicity rating RICE (crop damage)” value ([14]; 250 g ai/ha) was 50, the “phytotoxicity rating IPOHE” value ([15]; 63 g ai/ha) was 30 and the “phytotoxicity rating IPOHE” value ([15]; 250 g ai/ha) was 70. For the same compound, the “phytotoxicity rating SORHA” value ([16]; 63 g ai/ha) was 30, the “phytotoxicity rating SORHA” value ([16]; 250 g ai/ha) was 50 and the “phytotoxicity rating DIGSA” value ([17]; 63 g ai/ha) was 90. For the same compound, the “phytotoxicity rating DIGSA” value ([17]; 250 g ai/ha) was 100, the “phytotoxicity rating CHEAL” value ([18]; 63 g ai/ha) was 100 and the “phytotoxicity rating CHEAL” value ([18]; 250 g ai/ha) was 100. For the same compound, the “phytotoxicity rating SETVI” value ([19]; 63 g ai/ha) was 50, the “phytotoxicity rating SETVI” value ([19]; 250 g ai/ha) was 90 and the “phytotoxicity rating ABUTH” value ([20]; 63 g ai/ha) was 99. For the same compound, the “phytotoxicity rating ABUTH” value ([20]; 250 g ai/ha) was 100, the “phytotoxicity rating AMBEL” value ([21]; 63 g ai/ha) was 0 and the “phytotoxicity rating AMBEL” value ([21]; 250 g ai/ha) was 100. For the same compound, the “phytotoxicity rating ECHCG” value ([22]; 63 g ai/ha) was 50, the “phytotoxicity rating ECHCG” value ([22]; 250 g ai/ha) was 100 and the “phytotoxicity rating CASOB” value ([23]; 63 g ai/ha) was 0. The “phytotoxicity rating CASOB” value ([23]; 250 g ai/ha) was 50.
